Data on 27 compounds can be found in patent US20210355104A1, “ADENOSINE RECEPTOR BINDING COMPOUNDS” (Nikang Therapeuticsm Inc., priority 2018, published 2021).

Values joined by “and” are separate entries in the source; they are usually repeats but may differ in a detail not shown here. Identical values can stand only once. Some results are limits rather than exact numbers.

In the experiment the target is Adenosine A2A receptor (Homo sapiens, UniProt P29274). As to the kind of experiment: cAMP assay in 293A cells stably expressing the adenosine A2A receptor (CGS21680 stimulation, HTRF). It counts as cell-based. Also on record: expressed in transfected cells; host or cells: 293A cells (Invitrogen, Cat# R705-07) infected with A2A-expressing lentivirus (custom packaged by Biosettia), puromycin selected. As to conditions: 293A-A2AR cells, 0.1% BSA, 1 uM CGS; read-out: cAMP (nM) 0.1% BSA, 1 uM CGS. Background: cAMP levels reflect the balance of adenylyl cyclase and phosphodiesterase activity.
Adenosine A2A receptor, sequence (P29274 whole entry): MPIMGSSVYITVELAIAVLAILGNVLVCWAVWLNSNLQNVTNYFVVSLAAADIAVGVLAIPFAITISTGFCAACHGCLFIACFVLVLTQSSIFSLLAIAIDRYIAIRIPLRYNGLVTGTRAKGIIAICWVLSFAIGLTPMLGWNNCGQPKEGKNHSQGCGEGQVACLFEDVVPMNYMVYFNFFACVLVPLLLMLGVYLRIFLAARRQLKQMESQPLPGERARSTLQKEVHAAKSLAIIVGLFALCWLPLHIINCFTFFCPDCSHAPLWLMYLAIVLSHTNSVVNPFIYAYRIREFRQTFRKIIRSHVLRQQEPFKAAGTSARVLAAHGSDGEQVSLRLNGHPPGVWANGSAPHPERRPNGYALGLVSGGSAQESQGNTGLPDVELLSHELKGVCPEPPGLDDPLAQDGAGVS
Regarding `CCc1nn(CC(C)(C)C#N)nc1COc1nc(N)nc(-c2ccc(F)cc2)c1-c1cc(C)nc(C(F)F)c1` [Example 324, 3-(4-(((2-amino-5-(2-(difluoromethyl)-6-methylpyridin-4-yl)-6-(4-fluorophenyl)pyrimidin-4-yl)oxy)methyl)-5-ethyl-2H-1,2,3-triazol-2-yl)-2,2-dimethylpropanenitrile], the IC50 stood at 2080 nM.

Take `Cc1cc(-c2c(OCC3CC(C(=O)O)C3)nc(N)nc2-c2ccc(F)cc2)cc(C(F)F)n1` (stereo not drawn) [Example 325, 3-(((2-amino-5-(2-(difluoromethyl)-6-methylpyridin-4-yl)-6-(4-fluorophenyl)pyrimidin-4-yl)oxy)methyl)cyclobutane-1-carboxylic acid]: the IC50 was greater than 25000 nM.

On to `Cc1cc(-c2c(OCc3cccc(N(C)CC(=O)O)n3)nc(N)nc2-c2ccc(F)cc2)cc(C(F)F)n1` [Example 327, N-(6-(((2-amino-5-(2-(difluoromethyl)-6-methylpyridin-4-yl)-6-(4-fluorophenyl)pyrimidin-4-yl)oxy)methyl)pyridin-2-yl)-N-methylglycine], for which the IC50 is 4390 nM.

Consider `Cc1cc(-c2c(OCc3cccc(N(C)CCC(=O)O)n3)nc(N)nc2-c2ccc(F)cc2)cc(C(F)F)n1` [Example 328, 3-((6-(((2-amino-5-(2-(difluoromethyl)-6-methylpyridin-4-yl)-6-(4-fluorophenyl)pyrimidin-4-yl)oxy)methyl)pyridin-2-yl)(methyl)amino) propanoic acid], for which the IC50 was determined as 4510 nM.

On to `CCn1[nH]c(=O)cc1COc1nc(N)nc(-c2ccc(F)cc2)c1-c1cc(C)nc(C(F)F)c1` [Example 330, 5-(((2-amino-5-(2-(difluoromethyl)-6-methylpyridin-4-yl)-6-(4-fluorophenyl)pyrimidin-4-yl)oxy)methyl)-1-ethyl-1,2-dihydro-3H-pyrazol-3-one], for which the IC50 was 2550 nM.

Consider `Cc1cc(-c2c(OCc3cc4ccccc4o3)nc(N)nc2-c2ccc(F)cc2)cc(C(F)F)n1` [Example 331, 4-(benzofuran-2-ylmethoxy)-5-(2-(difluoromethyl)-6-methylpyridin-4-yl)-6-(4-fluorophenyl)pyrimidin-2-amine], for which the IC50 is 648 nM.

Turning to `CCn1c(COc2nc(N)nc(-c3ccc(F)cc3)c2-c2cc(C)nc(C(F)F)c2)nc2ccc(C(=O)O)cc21` [Example 332, 2-(((2-amino-5-(2-(difluoromethyl)-6-methylpyridin-4-yl)-6-(4-fluorophenyl)pyrimidin-4-yl)oxy)methyl)-1-ethyl-1H-benzo[d]imidazole-6-carboxylic acid], the IC50 was greater than 5000 nM.

In the case of `CCn1c(COc2nc(N)nc(-c3ccc(F)cc3)c2-c2cc(C)nc(C(F)F)c2)nc2cc(C(=O)O)ccc21` [Example 333, 2-(((2-amino-5-(2-(difluoromethyl)-6-methylpyridin-4-yl)-6-(4-fluorophenyl)pyrimidin-4-yl)oxy)methyl)-1-ethyl-1H-benzo[d]imidazole-5-carboxylic acid], the IC50 is greater than 5000 nM.

In the case of `Cc1cc(-c2c(OCCn3ccc(C(=O)O)cc3=O)nc(N)nc2-c2ccc(F)cc2)cc(C(F)F)n1` [Example 334, 1-(2-((2-amino-5-(2-(difluoromethyl)-6-methylpyridin-4-yl)-6-(4-fluorophenyl)pyrimidin-4-yl)oxy)ethyl)-2-oxo-1,2-dihydropyridine-4-carboxylic acid], the IC50 worked out at 3170 nM.

Turning to `Cc1cc(-c2c(OCCn3cccc(C(=O)O)c3=O)nc(N)nc2-c2ccc(F)cc2)cc(C(F)F)n1` [Example 335, 1-(2-((2-amino-5-(2-(difluoromethyl)-6-methylpyridin-4-yl)-6-(4-fluorophenyl)pyrimidin-4-yl)oxy)ethyl)-2-oxo-1,2-dihydropyridine-3-carboxylic acid], the IC50 was greater than 25000 nM.

Turning to `Cc1cc(-c2c(OCCn3cc(C(=O)O)ccc3=O)nc(N)nc2-c2ccc(F)cc2)cc(C(F)F)n1` [Example 336, 1-(2-((2-amino-5-(2-(difluoromethyl)-6-methylpyridin-4-yl)-6-(4-fluorophenyl)pyrimidin-4-yl)oxy)ethyl)-6-oxo-1,6-dihydropyridine-3-carboxylic acid], the IC50 was greater than 25000 nM.

On to `Cc1cc(-c2c(OCCOc3ncccc3C(=O)O)nc(N)nc2-c2ccc(F)cc2)cc(C(F)F)n1` [Example 337, 2-(2-((2-amino-5-(2-(difluoromethyl)-6-methylpyridin-4-yl)-6-(4-fluorophenyl)pyrimidin-4-yl)oxy)ethoxy)nicotinic acid], for which the IC50 is greater than 25000 nM.

As for `Cc1cc(-c2c(OCc3cccc(OCCC(C)(C)C(=O)O)n3)nc(N)nc2-c2ccc(F)cc2)cc(C(F)F)n1` [Example 338, 4-((6-(((2-amino-5-(2-(difluoromethyl)-6-methylpyridin-4-yl)-6-(4-fluorophenyl)pyrimidin-4-yl)oxy)methyl)pyridin-2-yl)oxy)-2,2-dimethylbutanoic acid], the IC50 is 2890 nM.

Consider `CCn1c(COc2nc(N)nc(-c3ccc(F)cc3)c2-c2cc(C)nc(C(F)F)c2)n[nH]c1=O` [Example 340, 5-(((2-amino-5-(2-(difluoromethyl)-6-methylpyridin-4-yl)-6-(4-fluorophenyl)pyrimidin-4-yl)oxy)methyl)-4-ethyl-2,4-dihydro-3H-1,2,4-triazol-3-one], for which the IC50 worked out at 4080 nM.

For the compound `Cc1cc(-c2c(OCc3nc4ccccn4n3)nc(N)nc2-c2ccc(F)cc2)cc(C(F)F)n1` [Example 341, 4-([1,2,4]triazolo[1,5-a]pyridin-2-ylmethoxy)-5-(2-(difluoromethyl)-6-methylpyridin-4-yl)-6-(4-fluorophenyl)pyrimidin-2-amine], the IC50 was found to be 1400 nM.

Consider `Cc1cc(-c2c(OCc3nc4ccccc4o3)nc(N)nc2-c2ccc(F)cc2)cc(C(F)F)n1` [Example 342, 4-(benzo[d]oxazol-2-ylmethoxy)-5-(2-(difluoromethyl)-6-methylpyridin-4-yl)-6-(4-fluorophenyl)pyrimidin-2-amine], for which the IC50 is 419 nM.

Take `Cc1cc(-c2c(OCc3cc4ccccc4s3)nc(N)nc2-c2ccc(F)cc2)cc(C(F)F)n1` [Example 343, 4-(benzo[b]thiophen-2-ylmethoxy)-5-(2-(difluoromethyl)-6-methylpyridin-4-yl)-6-(4-fluorophenyl)pyrimidin-2-amine]: the IC50 was 1340 nM.

In the case of `CCn1c(COc2nc(N)nc(-c3ccc(F)cc3)c2-c2cc(C)nc(C(F)F)c2)nc2cccc(C(=O)O)c21` [Example 344, 2-(((2-amino-5-(2-(difluoromethyl)-6-methylpyridin-4-yl)-6-(4-fluorophenyl)pyrimidin-4-yl)oxy)methyl)-1-ethyl-1H-benzo[d]imidazole-7-carboxylic acid], the IC50 was greater than 25000 nM.

For `CCn1c(COc2nc(N)nc(-c3ccc(F)cc3)c2-c2cc(C)nc(C(F)F)c2)nc2c(C(=O)O)cccc21` [Example 345, 2-(((2-amino-5-(2-(difluoromethyl)-6-methylpyridin-4-yl)-6-(4-fluorophenyl)pyrimidin-4-yl)oxy)methyl)-1-ethyl-1H-benzo[d]imidazole-4-carboxylic acid], the IC50 came to 10300 nM.

On to `Cc1cc(-c2c(OCc3cc4c(s3)CCCC4)nc(N)nc2-c2ccc(F)cc2)cc(C(F)F)n1` [Example 346, 5-(2-(difluoromethyl)-6-methylpyridin-4-yl)-4-(4-fluorophenyl)-6-((4,5,6,7-tetrahydrobenzo[b]thiophen-2-yl)methoxy)pyrimidin-2-amine], for which the IC50 was 3990 nM.

Consider `Cc1cc(-c2c(OCc3nc4ccccc4s3)nc(N)nc2-c2ccc(F)cc2)cc(C(F)F)n1` [Example 347, 4-(benzo[d]thiazol-2-ylmethoxy)-5-(2-(difluoromethyl)-6-methylpyridin-4-yl)-6-(4-fluorophenyl)pyrimidin-2-amine], for which the IC50 is 634 nM.

Regarding `Cc1cc(-c2c(OCCc3ccncc3)nc(N)nc2-c2ccc(F)cc2)cc(C(F)F)n1` [Example 348, 5-(2-(difluoromethyl)-6-methylpyridin-4-yl)-4-(4-fluorophenyl)-6-(2-(pyridin-4-yl)ethoxy)pyrimidin-2-amine], the IC50 amounted to 2620 nM.

For the compound `Cc1cc(-c2c(NCc3nc4ccccc4n3C)nc(N)nc2-c2ccc(F)cc2)cc(C(F)F)n1` [Example 351, 5-(2-(difluoromethyl)-6-methylpyridin-4-yl)-6-(4-fluorophenyl)-N^4-((1-methyl-1H-benzo[d]imidazol-2-yl)methyl)pyrimidine-2,4-diamine], the IC50 stood at 13100 nM.

In the case of `Cc1cc(-c2c(OCc3nc4n(n3)CCCC4)nc(N)nc2-c2ccc(F)cc2)cc(C(F)F)n1` [Example 352, 5-(2-(difluoromethyl)-6-methylpyridin-4-yl)-4-(4-fluorophenyl)-6-((5,6,7,8-tetrahydro-[1,2,4]triazolo[1,5-a]pyridin-2-yl)methoxy)pyrimidin-2-amine], the IC50 came to 1790 nM.

Consider `Cc1cc(-c2c(NCc3cccc(C(C)(C)C#N)n3)nc(N)nc2-c2ccc(F)cc2)cc(C(F)F)n1` [Example 356, 2-(6-(((2-amino-5-(2-(difluoromethyl)-6-methylpyridin-4-yl)-6-(4-fluorophenyl)pyrimidin-4-yl)amino)methyl)pyridin-2-yl)-2-methylpropanenitrile], for which the IC50 turned out to be 1420 nM.

For `Cc1cc(-c2c(OCc3nc4cc(C(C)(C)O)ccc4n3C)nc(N)nc2-c2ccc(F)cc2)cc(C(F)F)n1` [Example 357, 2-(2-(((2-amino-5-(2-(difluoromethyl)-6-methylpyridin-4-yl)-6-(4-fluorophenyl)pyrimidin-4-yl)oxy)methyl)-1-methyl-1H-benzo[d]imidazol-5-yl)propan-2-ol], the IC50 was 3910 nM and 3930 nM.

Consider `Cc1cc(-c2c(OCc3nc4ccc(C(C)(C)O)cc4n3C)nc(N)nc2-c2ccc(F)cc2)cc(C(F)F)n1` [Example 358, 2-(2-(((2-amino-5-(2-(difluoromethyl)-6-methylpyridin-4-yl)-6-(4-fluorophenyl)pyrimidin-4-yl)oxy)methyl)-1-methyl-1H-benzo[d]imidazol-6-yl)propan-2-ol], for which the IC50 was 940 nM and 1060 nM.
